The text below walks through data of patent publication US5071849A, “Dihydropyrimidothiazine derivatives” (priority 1989, dated 1991).

Like-named read-outs stand apart in the source and are kept apart here.

Series [1] relates to carrageen - induced oedema. In words: Inhibition of carrageen-induced oedema on rats. The conditions noted are these: for ED30: Rattus norvegicus, po, read-out: ID30 (dose resulting in an inhibition of 30%); for Therapeutical index: Table III, LD50 and ID30. Type of series: in vivo. The protocol:
The antiinflammatory effect of the novel compounds of the invention was investigated on rats weighing 150 to 180 g. 0.1 ml of a 1 per cent carrageen suspension was injected subcutaneously into the plantar region of one of the hind paws. Rats were fasted for 12 hours and received drinking water ad libitum. One hour before treatment with the test compound animals were hydrated orally with 30 ml/kg of tap water. The test compounds or the vehicle were administered p.o. in a volume of 10 ml/kg, then two hours later carrageen was applied. The volume of the treated paw was measured by mercury-plethysmometer before and 3 hours after injection in such a way that displacement of the liquid arising from the volume alteration was indicated on a millimeter scale. The volumes of the treated paws were compared with those of the control group.

A short description of another series: in vivo. The conditions noted are these: mouse, po. The protocol: White mice belonging to the CFLP strain (body weight 18-22 g; both male and female) are used, 10 animals for each dose. The test compound is administered orally in a volume of 20 ml/kg. […] The mice are kept in a plastic cage at room temperature. The animals get tap water and standard mouse fodder ad libitum.

The subject of another series is Hexobarbital narcosis. In words: Hexobarbital narcosis on mice. The conditions noted are these: for ED50: Mus musculus, po, mice, p.o., 1 hour before Hexobarbital 40 mg/kg i.v., sleeping time more than 2.5 times longer than control; for Therapeutical index: Table IV, hexobarbital narcosis on mice. The class given is in vivo. As to the method:
Groups consisting of 6 mice are used for each dose. The animals are treated orally with the test compound, whereby sleeping is induced 1 hour later by administering a 40 mg/kg i.v. dose of Hexobarbital both to the test and control groups.
ED50 values are calculated from the thus-transformed data.

Series [2] relates to experimental coronaria insufficiency induced with vasopressin. Description: Antianginal effect: vasopressin-induced experimental coronaria insufficiency, ECG wave T. The class given is in vivo. As to conditions: Rattus norvegicus; rats, iv., 2 minutes prior to vasopressin. The protocol: Male rats of 180-220 g body weight were narcotised with chloralese-urethane (70/700 mg/kg ip.). The ECG was registered with needle electrodes in standard II leading. The experimental coronaria insufficiency was induced with vasopressin (4 NE/kg i.v.). The height of wave T in ECG was measured before and after the administration of vasopressin in both the control and treated groups. Test compounds were administered intravenously 2 minutes prior to the treatment with vasopressin.

[3] abbreviates: rats, p.o., two hours before carrageen, paw volume 3 hours after injection.

With `CC(=O)Oc1ccccc1C(=O)O` [Acetylsalicylic acid, reference compound], the ED30 in series [1] (3 h) was determined as 200 mg/kg. In series [1], this compound came in with a Therapeutical index of 6.8.
For orientation: LD50 means the dose expected to kill half of the subjects tested. High values mean lower toxicity, low ones greater toxicity. As for `CCOC(=O)C1=C(C)N=C2SCCCN2C1c1ccccc1` (stereo not drawn) [Example 1, Ethyl-(6-phenyl-8-methyl-3,4-dihydro-2H,6H-pyrimido-[2,1-b][1,3]thiazine-7-carboxylate)], the LD50 at 336 h in “in vivo” was found to be 580 mg/kg.
On the same count and under the same terms, next, `CCOC(=O)C1=C(C)N=C2SCCCN2C1c1c(F)cccc1Cl` (stereo not drawn) [Example 2, Ethyl-[6-(2-fluoro-6-chlorophenyl)-8-methyl-3,4-dihydro-2H,6H-pyrimido[2,1-b][1,3]thiazine-7-carboxylate]]: 170 mg/kg; `CCOC(=O)C1=C(C)N=C2SCCCN2C1c1ccc(Cl)c(Cl)c1` (stereo not drawn) [Example 3, Ethyl-[6-(3,4-dichlorophenyl)-8-methyl-3,4-dihydro-2H,6H-pyrimido[2,1-b][1,3]thiazine-7-carboxylate]]: 1000 mg/kg.
Same read-out and setting: next, `COC(=O)C1=C(C)N=C2SCCCN2C1c1cccc([N+](=O)[O-])c1` (stereo not drawn) [Example 4, Methyl-[6-(3-nitrophenyl)-8-methyl-3,4-dihydro-2H,6H-pyrimido[2,1-b][1,3]thiazine-7-carboxylate]]: 370 mg/kg; `CC1=C(C(=O)Nc2ccccc2)C(c2ccccc2)N2CCCSC2=N1` (stereo not drawn) [Example 5, 6-Phenyl-8-methyl-3,4-dihydro-2H,6H-pyrimido[2,1-b][1,3]thiazine-7-carboxylic anilide]: 700 mg/kg.
What is called ED50 is the dose at which the effect has come halfway, by size or by number of responders. In the series on Hexobarbital narcosis, `CC1=C(C(=O)Nc2ccccc2)C(c2c(F)cccc2Cl)N2CCCSC2=N1` (stereo not drawn) [Example 6, 6-(2-Fluoro-6-chlorophenyl)-8-methyl-3,4-dihydro-2H,6H-pyrimido[2,1-b][1,3]thiazine-7-carboxylic anilide] registered an ED50 of 25 mg/kg and a Therapeutical index of 40.0. This compound also had a median lethal dose (LD50) at 336 h in “in vivo” of over 1000 mg/kg.
`CCOC(=O)C1=C(C)N=C2SCCCN2C1c1ccc(OC)cc1` (stereo not drawn) [Example 7, Ethyl-[8-methyl-6-(4-methoxyphenyl)-3,4-dihydro2H,6H-pyrimido[2,1-b][1,3]thiazine-7-carboxylate]] returned a median effective dose (ED50) in series [2] of 1.87 mg/kg. This compound also registered an LD50 at 336 h in the series “in vivo” of 600 mg/kg.
Taken in the same sequence, the figures for `COC(=O)C1=C(C)N=C2SCCCN2C1c1ccc(Cl)c([N+](=O)[O-])c1` (stereo not drawn) [Example 8] were 1.21 mg/kg and 700 mg/kg.
Regarding `COC(=O)C1=C(C)N=C2SCC(C)CN2C1c1ccc(Cl)c([N+](=O)[O-])c1` (stereo not drawn) [Example 9], in the series “in vivo”, the 50% lethal dose (LD50) at 336 h is over 1000 mg/kg.
In the series with Hexobarbital narcosis, `COC(=O)C1=C(C)N=C2SCC(C)CN2C1c1cccc([N+](=O)[O-])c1` (stereo not drawn) [Example 10] returned an ED50 of 39 mg/kg and a Therapeutical index of 25.6. The LD50 at 336 h in “in vivo” is over 1000 mg/kg.
Turning to `CCOC(=O)C1=C(C)N=C2SCCCN2C1c1ccc(Br)cc1` (stereo not drawn) [Example 11, Ethyl-[6-(4-bromophenyl)-8-methyl-3,4-dihydro-2H,6H-pyrimido[2,1-b][1,3]thiazine-7-carboxylate]], in the series with Hexobarbital narcosis, the ED50 was about 200 mg/kg and the Therapeutical index was found to be 5.0. The LD50 at 336 h in the series “in vivo” is over 1000 mg/kg.
For `CCOC(=O)C1=C(c2ccccc2)N=C2SCCCN2C1c1c(F)cccc1Cl` (stereo not drawn) [Example 12], in “in vivo”, the LD50 at 336 h is over 1000 mg/kg.
In the series with Hexobarbital narcosis, `CCOC(=O)C1=C(c2ccccc2)N=C2SCCCN2C1c1ccc([N+](=O)[O-])cc1` (stereo not drawn) [Example 13, Ethyl-[8-phenyl-6-(4-nitrophenyl)-3,4-dihydro-2H,6H-pyrimido[2,1-b][1,3]thiazine-7-carboxylate]] showed an ED50 of about 200 mg/kg and a Therapeutical index of 5.0. This compound returned an LD50 at 336 h in “in vivo” of 1000 mg/kg.
On to `COC(=O)C1=C(C)N=C2SCCCN2C1C` (stereo not drawn) [Example 14, Methyl-(6,8-dimethyl-3,4-dihydro-2H,6H-pyrimido-[2,1-b][1,3]thiazine-7-carboxylate)], for which the ED30 in series [1] (setting [3]) stood at 10 mg/kg. The Therapeutical index in series [1] amounted to 40. In “in vivo”, this compound displayed a median lethal dose (LD50) at 336 h of 400 mg/kg.
As for `COC(=O)C1=C(C)N=C2SCCCN2C1c1ccc(OC)cc1` (stereo not drawn) [Example 15, Methyl-[8-methyl-6-(4-methoxyphenyl)-3,4-dihydro-2H,6H-pyrimido[2,1-b][1,3]thiazine-7-carboxylate]], in series [1] (setting [3]), the ED30 came to 70 mg/kg. Further, the Therapeutical index in series [1] is over 14.3. The LD50 at 336 h in “in vivo” is over 1000 mg/kg.
Consider `COC(=O)C1=C(C)N=C2SCCCN2C1c1ccc(Cl)c(Cl)c1` (stereo not drawn) [Example 16, Methyl-[6-(3,4-dichlorophenyl)-8-methyl-3,4-dihydro-2H,6H-pyrimido[2,1-b][1,3]thiazine-7-carboxylate]], for which the ED30 in series [1] (setting [3]) is 120 mg/kg. Further, the Therapeutical index in series [1] came out at 8.3. This compound yielded an ED50 in series [2] of about 0.81 mg/kg. The compound also showed an LD50 at 336 h in the series “in vivo” of 1000 mg/kg.
With `COC(=O)C1=C(C)N=C2SCCCN2C1c1cc(OC)c(OC)c(OC)c1` (stereo not drawn) [Example 18, Methyl-[8-methyl-6-(3,4,5-trimethoxyphenyl)-3,4-dihydro-2H,6H-pyrimido[2,1-b][1,3]thiazine-7-carboxylate]], the ED30 in series [1] (setting [3]) amounted to 110 mg/kg. In series [1], the Therapeutical index is given as over 9.1. This compound also returned an LD50 at 336 h in “in vivo” of over 1000 mg/kg.
In series [2], `CCOC(=O)C1=C(c2ccccc2)N=C2SCCCN2C1c1ccc(OC)cc1` (stereo not drawn) [Example 19, Ethyl-[8-phenyl-6-(4-methoxyphenyl)-3,4-dihydro-2H,6H-pyrimido[2,1-b][1,3]thiazine-7-carboxylate]] had a median effective dose (ED50) of 1.45 mg/kg.
Turning to `CCOC(=O)C1=C(C)N=C2SCCCN2C1c1ccc(N(C)C)cc1` (stereo not drawn) [Example 22, Ethyl-[6-(4-dimethylaminophenyl)-8-methyl-3,4-dihydro-2H,6H-pyrimido[2,1-b][1,3]thiazine-7-carboxylate]], in series [1] (setting [3]), the ED30 was determined as 10 mg/kg. In series [1], the Therapeutical index was determined as 70. Also, in the series “in vivo”, the LD50 at 336 h was 700 mg/kg.
For `COC(=O)C1=C(C)N=C2SCCCN2C1c1ccccc1OC` (stereo not drawn) [Example 25, Methyl-[8-methyl-6-(2-methoxyphenyl)-3,4-dihydro-2H,6H-pyrimido[2,1-b][1,3]thiazine-7-carboxylate]], the ED30 in series [1] (setting [3]) was determined as 10 mg/kg. In addition, in series [1], the Therapeutical index was 10-50. The same compound registered an LD50 at 336 h in the series “in vivo” of 100 to 500 mg/kg.
Turning to `COc1ccc2c(c1)c(CC(=O)O)c(C)n2C(=O)c1ccc(Cl)cc1` [Indomethacin, reference compound], the ED30 in series [1] (3 h) was determined as 3 mg/kg. For the same compound, the Therapeutical index in series [1] came out at 7.3.
Regarding `CCCC(C)(COC(N)=O)COC(N)=O` [Meprobamate, reference compound], in the series with Hexobarbital narcosis, it took a dose of 260 mg/kg to reach the 50% effect level (ED50) and the Therapeutical index was 4.2.
With `CC(=O)Nc1ccc(O)cc1` [Paracetamol, reference compound], the ED30 in series [1] (setting [3]) came to 200 mg/kg. The compound further had a Therapeutical index in series [1] of 5.9. The LD50 at 336 h in the series “in vivo” is 1180 mg/kg.
As for `CCCCC1C(=O)N(c2ccccc2)N(c2ccccc2)C1=O` [Phenylbutazone, reference compound], in series [1] (setting [3]), the ED30 worked out at 40 mg/kg.
`CC(Cc1ccccc1)NCCC(c1ccccc1)c1ccccc1` (stereo not drawn) [Prenylamine, reference compound] displayed an ED50 in series [2] of 6.5 mg/kg.
